Measurements published in patent publication US11963969B2, “Method for prevention or treatment of amyotrophic lateral sclerosis by administering gastrodin” (BUDDHIST TZU CHI MEDICAL FOUNDATION, priority 2021, dated 2024).
“Also recorded” adds a separate entry of the source.

Assays:
patients with ALS = conditions: cited from earlier work
ALS motor neurons = assay: ALS motor neurons, summary of axon and neurofilament findings; assay type: cell-based, human; conditions: 72 hrs after addition of gastrodin
Procedure: (§1) The gastrodin was diluted with dimethyl sulfoxide (DMSO) to 10 mM, added to the motor neurons differentiated at Day 25, Day 35 and Day 45 at a dosage ratio of 1:1,000, and cultured for 72 hours (hrs) for various assays.

[1] = test system: SOD1^D90A ALS motor neurons; assay: NF staining of SOD1^D90A ALS iPSC-differentiated motor neurons; assay type: cell-based, human; conditions: for efficacy on increasing number of nerve fibers, gastrodin compared with riluzole / reduction of spherical nerve fiber beads, gastrodin compared with riluzole: comparison of gastrodin and riluzole
Procedure: as §1
(§2) A 4-well culture slide with a glass cover placed thereon was coated with 1% Geltrex®, placed at 37° C. for at least 3 to 4 hrs, washed with phosphate buffered saline (PBS) once after removal of the Geltrex®, and soaked in a culture medium until use. The embryoid bodies were dissociated with enzymes or mechanical force into smaller pieces, seeded on the 4-well culture slide, and cultured for 3 days (optionally for a longer period). After the cells adhered and extended outwards to present rosettes with a neural tube-like or a neuronal morphology, the immunofluorescent staining was then performed.
For the immunofluorescent staining, the medium was firstly removed, and then the cells were washed with PBS at room temperature twice. Next, 200 μL of 4% paraformaldehyde was added to the cells, and the mixture was reacted at room temperature for 5 to 15 min to fix the cells. The cells were washed with PBS for 3 times for 5 min each, and 200 μL of 99% methanol or 0.3% Triton® was added. The mixture was incubated for 5 to 15 min at 4° C., and the liquid was removed after permeabilization. The methanol, if used for fixation, was volatilized out. Then, the mixture was washed with PBS for 3 times (each for 5 min), and 200 μL of 5% horse serum was added at room temperature for at least 1 hr for blocking. […] The primary antibody was removed after conjugation for 16 hrs, followed by washing with PBS and Tween® 20 (abbreviated as PBST hereinafter) for 3 times for 5 min each, and a secondary antibody (prepared in PBS at a concentration of 1:500) was added. The secondary antibody was kept in dark for 1 hour at room temperature. After removal of the secondary antibody, the mixture was washed 3 times with PBST for 5 min each.
(§3) Thereafter, the cells were labeled via nuclear staining by adding 200 μL of 4′,6-diamidino-2-phenylindole (DAPI) (1 μg/mL), reacting in dark for 5 to 15 min at room temperature, removing DAPI, washing with PBST twice for 5 min each, removing PBST, adding PBS to maintain the cell moisture, lifting the glass coverslip with a needle tip, reversing the glass coverslip to the side with 50% glycerol or a mounting gel, storing in dark at 4° C., observing with a fluorescence microscope or a confocal microscope and photographing, and subsequently quantifying the numbers of neurofilaments and nerve fiber beads using an OLYMPUS cellSens Dimension Desktop 2.3 software.
In this Example, SOD1^D90A ALS iPSCs-differentiated motor neurons were used for comparing the efficacies of gastrodin and riluzole on improvement of ALS symptoms.

[2] = test system: B6SJL-Tg (SOD1*G93A) 1Gur/J transgenic mice; assay: ALS model mice: motor abilities, BBB score and survival; assay type: in vivo
Source text: The mice began to develop limb onsets in 80 to 90 days after birth, gradually lose ability to walk, and muscle weakness and atrophy started spreading to the upper parts of body. Most of their voluntary muscles became paralyzed and death after 110 to 120 days due to gradual loss of chewing ability and respiratory failure. The pathological characteristics include symptoms of amyotrophic lateral sclerosis such as muscular dystrophy, synaptic loss of motor neurons, degeneration and death of motor neurons, dismantling of the neuromuscular junction, etc.
Sixty days after birth, the ALS model mice (B6SJL-Tg (SOD1*G93A) 1Gur/J) were administered with gastrodin cycles once every 30 days as a single cycle, and 5 intraperitoneal injection of gastrodin was administered (with one day interval between every two intraperitoneal injections) at the first 10 days. No injection was administered during the subsequent 20 days. A total of two cycles of dosing may be performed until 120 days after birth.
The Example tested whether gastrodin improved the ALS symptoms of transgenic mice.
In this Example, beginning at 60 days after birth, the mice were administered with gastrodin by intraperitoneal injection at a dose of 50 mg/kg or 200 mg/kg for 5 times (with one day interval) every 30 days, until the mice degenerated severely to the extent that the hind lambs lost motor ability completely and until sacrificed. In this Example, motor abilities were tested, and survival time was recorded in days.

[3] = test system: sALS iPSC-differentiated motor neurons; assay: NF staining of motor neurons differentiated from sporadic ALS iPSCs; assay type: cell-based, human; conditions: after treatment with gastrodin
Procedure: as §1
as §2, with “After the cells adhered and extended outwards to present rosettes with a neural tube-like or a neuronal morphology, the immunofluorescent staining was then performed.” left out
as §3, with “software. […]” for “software.”

[4] = test system: SOD1^G85R ALS motor neurons; assay: NF staining of SOD1^G85R ALS iPSC-differentiated motor neurons; assay type: cell-based, human; conditions: 10 μM gastrodin, 72 hrs, vs untreated
Procedure: as §1
as §2, with “After the cells adhered and extended outwards to present rosettes with a neural tube-like or a neuronal morphology, the immunofluorescent staining was then performed.” left out
as §3, with “software. […]” for “software.”

SOD1^D90A motor neurons = assay: Calcium ion image analysis after KCl and glutamate stimulation; assay type: cell-based, human
Procedure: as §1
Cells were seeded on a Geltrex®-coated round glass slide having a diameter of 10 mm, and cultured in a neurobasal medium supplemented with RevitaCell® and compound E for 3 days. 1 μM calcium fluorescent probe Fluo-4 solution was prepared in a physiological buffer containing […], 5 mM KCl, 2 mM CaCl2, 2 mM MgCl2, 10 mM glucose and 10 mM HEPES, and the glass slide on which the cells were seeded was transferred into the 1 μM Fluo-4 solution and cultured at 37° C. for 4 min. The glass slide was transferred into a physiological buffer and cultured at 37° C. for 20 min. The glass slide with cells seeded thereon was transferred into a calcium imaging chamber for imaging under perfusion.
Images were taken under perfusion with a physiological buffer for 30 seconds, then under perfusion with 60 mM KCl for 1 min, and then under perfusion with a physiological buffer for 5 min. Next, images were taken under perfusion with 1 mM glutamate for 1 min, and then under perfusion with a physiological buffer for 5 min. Images were captured with a microscope (Nikon ECLIPSE Ti2-E) and analyzed using NIS-Elements AR software. […]

[5] = 10 μM gastrodin, 72 hrs, NF staining, vs untreated
[6] = intraperitoneal gastrodin from day 60, vs control

| Compound | degeneration rate of motor ability (patients with ALS) | neural axons (ALS motor neurons) | neurofilament accumulation (ALS motor neurons) | amount of nerve fibers [1, 5] | spherical nerve fiber beads [1, 5] | efficacy on increasing number of nerve fibers, gastrodin compared with riluzole [1] | reduction of spherical nerve fiber beads, gastrodin compared with riluzole [1] | roller residence time ([2]; 50 mg/kg or 200 mg/kg intraperitoneal, 5 times every 30 days from day 60, vs control) | loss of motor ability ([2]; after injection of gastrodin) | mortality rate ([2]; after injection of gastrodin) | symptoms at an earlier stage ([2]; after injection of gastrodin) | suppression on loss of active ability, improvement ([2]; compared to the control group) | BBB scores [2, 6] | extension of life / overall survival time [2, 6] [days] | gripping strength of the hind limbs [2, 6] | amount of nerve fibers [3] | nerve fiber beads [3] | amount of nerve fibers [4] | response of ALS motor neurons to KCl (SOD1^D90A motor neurons; KCl stimulation) | oversensitive response to glutamate (calcium ion flow) (SOD1^D90A motor neurons; treatment for 72 hrs, 1 mM glutamate stimulation) |
| --- | --- | --- | --- | --- | --- | --- | --- | --- | --- | --- | --- | --- | --- | --- | --- | --- | --- | --- | --- | --- |
| CC1=NN(c2ccccc2)C(=O)C1 [Edaravone, edaravone] | can alleviate |  |  |  |  |  |  |  |  |  |  |  |  |  |  |  |  |  |  |  |
| OCc1ccc(O[C@@H]2O[C@H](CO)[C@@H](O)[C@H](O)[C@H]2O)cc1 [gastrodin] |  | Increased | reduced | increased | significantly decreased | comparable to riluzole | by an extent more than riluzole | obviously longer than that of the control; also recorded: increased | obviously delayed | reduced | delayed | about 20 days | retarded the decrease | 10 | clearly increased | increased | decreased | significantly increase | promoted | significantly decreased |
| Nc1nc2ccc(OC(F)(F)F)cc2s1 [riluzole, reference compound] |  |  |  |  |  | comparable to riluzole | by an extent more than riluzole |  |  |  |  |  |  |  |  |  |  |  |  |  |
